Results taken from patent publication US10988477B2 (Merck Patent GmbH, priority 2018, dated 2021).

How the values were obtained:
GCN2 kinase = GCN2 kinase (Homo sapiens, UniProt Q9P2K8); experiment: GCN2 enzyme inhibition assay (Transcreener ADP2 fluorescence polarization); type: biochemical; conditions: 280 μM ATP
Summary of the method: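 Inhibition of 4 nM GCN2 was measured with compound up to 8 μM final, ATP 280 μM and (RS)7 peptide 200 μM over a 1 h, 25 °C reaction. ADP FP readout; IC50 and Ki(app) calculated from percent inhibition.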

[1] = molecular target: intracellular GCN2 (phosphorylation of the GCN2 substrate eIF2α) (Homo sapiens, UniProt Q9P2K8); experiment: GCN2 cellular inhibition assay (AlphaScreen SureFire P-eIF2α Ser51, borrelidin-treated U2OS cells); type: cell-based; conditions: biomarker assay, phosphorylated eIF2α Ser51 in borrelidin-treated U2OS cells
Sequence of intracellular GCN2 (phosphorylation of the GCN2 substrate eIF2α) (Q9P2K8 whole entry): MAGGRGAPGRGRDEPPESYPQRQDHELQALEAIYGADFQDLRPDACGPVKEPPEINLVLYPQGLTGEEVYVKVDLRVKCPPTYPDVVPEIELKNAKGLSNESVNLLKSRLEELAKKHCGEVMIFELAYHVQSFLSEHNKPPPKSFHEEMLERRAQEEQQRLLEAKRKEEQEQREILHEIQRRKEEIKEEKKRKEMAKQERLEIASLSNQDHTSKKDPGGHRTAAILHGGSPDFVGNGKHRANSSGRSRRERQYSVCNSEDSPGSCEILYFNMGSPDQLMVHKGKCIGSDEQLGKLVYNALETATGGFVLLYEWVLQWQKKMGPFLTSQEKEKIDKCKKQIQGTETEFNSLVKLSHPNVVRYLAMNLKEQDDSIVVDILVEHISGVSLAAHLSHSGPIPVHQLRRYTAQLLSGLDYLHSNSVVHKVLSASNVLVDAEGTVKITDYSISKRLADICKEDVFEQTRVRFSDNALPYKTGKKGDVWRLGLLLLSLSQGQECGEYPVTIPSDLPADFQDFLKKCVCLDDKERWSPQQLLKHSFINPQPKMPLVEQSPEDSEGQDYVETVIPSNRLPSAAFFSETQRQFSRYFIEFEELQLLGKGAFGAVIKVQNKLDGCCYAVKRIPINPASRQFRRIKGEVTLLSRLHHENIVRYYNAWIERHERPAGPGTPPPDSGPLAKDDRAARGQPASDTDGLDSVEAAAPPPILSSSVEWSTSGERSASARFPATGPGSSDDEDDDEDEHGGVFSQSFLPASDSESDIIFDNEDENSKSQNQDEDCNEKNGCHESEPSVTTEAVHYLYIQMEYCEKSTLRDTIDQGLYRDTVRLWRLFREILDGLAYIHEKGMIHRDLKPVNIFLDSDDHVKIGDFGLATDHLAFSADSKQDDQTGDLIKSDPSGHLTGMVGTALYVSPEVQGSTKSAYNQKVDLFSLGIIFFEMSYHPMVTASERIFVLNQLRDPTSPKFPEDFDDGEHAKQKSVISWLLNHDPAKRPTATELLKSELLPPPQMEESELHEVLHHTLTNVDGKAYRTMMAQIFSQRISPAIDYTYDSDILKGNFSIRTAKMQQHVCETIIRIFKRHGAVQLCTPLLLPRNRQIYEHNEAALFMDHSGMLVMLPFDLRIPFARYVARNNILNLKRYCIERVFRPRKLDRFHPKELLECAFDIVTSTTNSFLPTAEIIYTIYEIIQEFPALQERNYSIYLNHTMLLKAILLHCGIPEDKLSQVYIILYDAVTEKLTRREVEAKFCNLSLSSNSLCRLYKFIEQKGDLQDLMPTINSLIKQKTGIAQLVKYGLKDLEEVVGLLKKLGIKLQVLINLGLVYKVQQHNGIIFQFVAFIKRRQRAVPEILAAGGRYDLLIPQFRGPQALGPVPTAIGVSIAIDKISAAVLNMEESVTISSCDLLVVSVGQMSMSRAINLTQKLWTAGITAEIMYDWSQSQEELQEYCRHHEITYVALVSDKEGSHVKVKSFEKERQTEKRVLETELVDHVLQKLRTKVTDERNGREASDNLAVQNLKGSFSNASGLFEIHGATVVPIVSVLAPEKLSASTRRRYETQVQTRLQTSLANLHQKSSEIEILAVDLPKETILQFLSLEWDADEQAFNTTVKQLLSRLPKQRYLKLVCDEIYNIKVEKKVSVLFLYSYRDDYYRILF
Procedure: Compounds can be screened for their ability to inhibit intracellular GCN2 using an AlphaScreen assay (Perkin Elmer) to detect phosphorylation of the GCN2 substrate eIF2α in borrelidin-treated cells. U2OS cells are plated at 5,000 cells per well in 384-well white polystyrene plates (Corning 3570) in McCoy's 5 A media (GIBCO 26600-023) supplemented with 10% foetal bovine serum (SAFC 12103C), Penicillin/Streptomycin solution diluted 1:100 (Sigma P0781), and 2 mM L-glutamine (Sigma G7513), and allowed to adhere overnight at 37° C. in 5% CO2. Compounds are then added to the cell media from a final concentration of 40 μM in 4-fold serial dilutions. Borrelidin (FluoroChem M01440) is immediately added to the wells to a final concentration of 10 μM and the cells are incubated for 1 h at 37° C. in 5% CO2. After 1 h of treatment with borrelidin, the media is removed, and the cells are lysed with lysis buffer (TGR BioSciences TGRLB) at ambient temperature.
An AlphaScreen SureFire P-eIF2α (Ser51) assay kit (Perkin Elmer TGREIF2S) was used to measure levels of eIF2α phosphorylated on Serine 51. Anti-phosphorylated eIF2α Ser51 antibody-linked acceptor beads (TGR BioScience 6760617) are added to the cell homogenate (diluted 1:250 into a mixture of activation (TGR BioScience TGRAB) and reaction buffer (TGR BioScience TGREIF2S) prepared immediately before use). The plate is then incubated for 2 h at ambient temperature in the dark. Anti-eIF2α antibody-linked donor beads (TGR BioScience 6760617) were then added (diluted 1:100 in dilution buffer (TGR BioScience TGRDB) prepared immediately before use). The plate is then incubated overnight at ambient temperature in the dark.
Plates are analyzed on an Alpha Technology-compatible PHERAstar FS plate reader (BMG Labtech Version 1.14) to quantify phosphorylated eIF2α Ser51 levels. The percentage inhibition of phosphorylated eIF2α is calculated by comparison to control wells stimulated with borrelidin alone.

[2] = Enzyme activity for compounds of Formula IV, Ki(app), 25° C.
[3] = compounds of Formula II, 4 nM GCN2 kinase

Sequence of GCN2 kinase (Q9P2K8 whole entry): as above

Row | Structure (SMILES) | Ki (GCN2 kinase; [2]) [µM] | IC50 ([1]; compounds of Formula IV) [µM] | Ki (GCN2 kinase; [3]) [µM] | IC50 ([1]; compounds of Formula II) [µM]
1 | CC1CN(c2ccnc(-c3cnc4cnc(C(F)(F)F)cn34)n2)C(C)C(c2cn[nH]c2)O1 (single isomer, unassigned) [IV-450, 3,6-Dimethyl-2-(1H-pyrazol-4-yl)-4-(2-(6-(trifluoromethyl)imidazo[1,2-a]pyrazin-3-yl)pyrimidin-4-yl)morpholine] | 0.1 to 1 | 0.5 to 5 |  | 
2 | Cc1ccc2ncc(-c3ccnc(N4CCCC(CNS(C)(=O)=O)C4)c3)n2n1 (stereo not shown) [II-183, N-((1-(4-(6-Methylimidazo[1,2-b]pyridazin-3-yl)pyridin-2-yl)piperidin-3-yl)methyl)methanesulfonamide] |  |  | 0.01 to 1 | 0.5 to 5
3 | OC1CCCN(c2ccnc(-c3cnc4cnc(C(F)(F)F)cn34)n2)CC1 (stereo not shown) [IV-447, 1-(2-(6-(Trifluoromethyl)imidazo[1,2-a]pyrazin-3-yl)pyrimidin-4-yl)azepan-4-ol] | 0.1 to 1 | > 5 |  | 
4 | FC(F)c1ccc2ncc(-c3cc(N4CCCCC4)ncn3)n2n1 [II-308, 6-(Difluoromethyl)-3-(6-(piperidin-1-yl)pyrimidin-4-yl)imidazo[1,2-b]pyridazine] |  |  | 0.01 to 1 | > 5
5 | FC(F)c1ccc2ncc(-c3cc(N4CCOC5CC54)ncn3)n2n1 (stereo not shown) [II-301, 5-(6-(6-(Difluoromethyl)imidazo[1,2-b]pyridazin-3-yl)pyrimidin-4-yl)-2-oxa-5-azabicyclo[4.1.0]heptane] |  |  | 0.01 to 1 | 0.5 to 5
6 | CC(C)(O)C1CC(c2cn[nH]c2)CN(c2ccnc(-c3cnc4cnc(C(F)(F)F)cn34)n2)C1 (single isomer, unassigned) [IV-685, 2-(5-(1H-Pyrazol-4-yl)-1-(2-(6-(trifluoromethyl)imidazo[1,2-a]pyrazin-3-yl)pyrimidin-4-yl)piperidin-3-yl)propan-2-ol] | < 0.01 | < 0.5 |  | 
7 | O=S(=O)(NC1CCCC1)C1CCCN(c2ccnc(-c3cnc4cnc(C(F)F)cn34)n2)C1 (stereo not shown) [IV-171, N-Cyclopentyl-1-(2-(6-(difluoromethyl)imidazo[1,2-a]pyrazin-3-yl)pyrimidin-4-yl)piperidine-3-sulfonamide] | 0.1 to 1 | > 5 |  | 
8 | c1cc(N2CCOC(c3cn[nH]c3)C2)nc(-c2cnc3cnc(C4CC4)cn23)n1 (stereo not shown) [IV-4, 4-(2-(6-Cyclopropylimidazo[1,2-a]pyrazin-3-yl)pyrimidin-4-yl)-2-(1H-pyrazol-4-yl)morpholine] | < 0.01 | 0.5 to 5 |  | 
9 | CS(=O)(=O)NCC1CCCN(c2cc(-c3cnc4ccc(C(F)F)nn34)ccn2)C1 (stereo not shown) [II-157, N-((1-(4-(6-(Difluoromethyl)imidazo[1,2-b]pyridazin-3-yl)pyridin-2-yl)piperidin-3-yl)methyl)methanesulfonamide] |  |  | < 0.01 | < 0.5
10 | Brc1cn2c(-c3nccc(N4CCCC(c5cn[nH]c5)C4)n3)cnc2cn1 (single isomer, unassigned) [IV-360, 3-(4-(3-(1H-Pyrazol-4-yl)piperidin-1-yl)pyrimidin-2-yl)-6-bromoimidazo[1,2-a]pyrazine] | < 0.01 | < 0.5 |  | 
11 | CCN1CCN(c2ccnc(-c3cnc4cnc(Br)cn34)n2)[C@@H](c2cn[nH]c2)[C@H]1C (relative stereo) [IV-391, Cis-6-Bromo-3-(4-(4-ethyl-3-methyl-2-(1H-pyrazol-4-yl)piperazin-1-yl)pyrimidin-2-yl)imidazo[1,2-a]pyrazine] | 0.1 to 1 | 0.5 to 5 |  | 
12 | CC1CN(c2cc(Cl)nc(-c3cnc4cnc(C(F)(F)F)cn34)n2)C(C)C(c2cn[nH]c2)N1 (stereo not shown) [IV-567, 3-(4-Chloro-6-(2,5-dimethyl-3-(1H-pyrazol-4-yl)piperazin-1-yl)pyrimidin-2-yl)-6-(trifluoromethyl)imidazo[1,2-a]pyrazine] | 0.01 to 0.1 | 0.5 to 5 |  | 
13 | CS(=O)(=O)N1CCCC(c2cc(-c3cnc4ccc(C(F)F)nn34)ncn2)CC1 (single isomer, unassigned) [II-275, 6-(Difluoromethyl)-3-(6-(1-(methylsulfonyl)azepan-4-yl)pyrimidin-4-yl)imidazo[1,2-b]pyridazine] |  |  | 0.01 to 1 | 0.5 to 5
14 | CC1CN(c2ccnc(-c3cnc4cnc(C(F)(F)F)cn34)n2)CC(c2c[nH]cn2)O1 (single isomer, unassigned) [IV-405, 2-(1H-Imidazol-4-yl)-6-methyl-4-(2-(6-(trifluoromethyl)imidazo[1,2-a]pyrazin-3-yl)pyrimidin-4-yl)morpholine] | < 0.01 | < 0.5 |  | 
15 | NC(=O)[C@H]1CCCN(c2cc(-c3cnc4ccc(C(F)F)nn34)ccn2)C1 [II-143, (S′)-1-(4-(6-(Difluoromethyl)imidazo[1,2-b]pyridazin-3-yl)pyridin-2-yl)piperidine-3-carboxamide] |  |  | < 0.01 | < 0.5
16 | CC(=O)N1CCN(c2cc(-c3cnc4ccc(C(F)F)nn34)ncn2)CC1 [II-186, 1-(4-(6-(6-(Difluoromethyl)imidazo[1,2-b]pyridazin-3-yl)pyrimidin-4-yl)piperazin-1-yl)ethan-1-one] |  |  | 0.01 to 1 | 0.5 to 5
17 | CS(=O)(=O)NCC1CN(c2cc(-c3cnc4ccc(C(F)F)nn34)ncn2)CC(C2CC2)O1 (stereo not shown) [II-443, N-((6-Cyclopropyl-4-(6-(6-(difluoromethyl)imidazo[1,2-b]pyridazin-3-yl)pyrimidin-4-yl)morpholin-2-yl)methyl)methanesulfonamide] |  |  | < 0.01 | < 0.5
18 | NC(=O)[C@H]1CCCN(c2ccnc(-c3cnc4cnc(C(F)F)cn34)n2)C1 [IV-50, (S)-1-(2-(6-(Difluoromethyl)imidazo[1,2-a]pyrazin-3-yl)pyrimidin-4-yl)piperidine-3-carboxamide] | 0.01 to 0.1 | 0.5 to 5 |  | 
19 | CC1CC(N=S(C)(C)=O)CN(c2cc(-c3cnc4ccc(C(F)F)nn34)c(F)cn2)C1 (single isomer, unassigned) [II-723, ((1-(4-(6-(Difluoromethyl)imidazo[1,2-b]pyridazin-3-yl)-5-fluoropyridin-2-yl)-5-methylpiperidin-3-yl)imino)dimethyl-λ^6-sulfanone] |  |  | 0.01 to 1 | 0.5 to 5
20 | OC1CCN(CCC2CCN(c3cc(-c4cnc5ccc(C(F)F)nn45)ncn3)CC2)C1 (stereo not shown) [II-351, 1-(2-(1-(6-(6-(Difluoromethyl)imidazo[1,2-b]pyridazin-3-yl)pyrimidin-4-yl)piperidin-4-yl)ethyl)pyrrolidin-3-ol] |  |  | 0.01 to 1 | > 5
21 | CC1CC(CNS(C)(=O)=O)CN(c2cc(-c3cnc4ccc(C(F)F)nn34)ncn2)C1 (single isomer, unassigned) [II-437, N-((1-(6-(6-(Difluoromethyl)imidazo[1,2-b]pyridazin-3-yl)pyrimidin-4-yl)-5-methylpiperidin-3-yl)methyl)methanesulfonamide] |  |  | < 0.01 | < 0.5
22 | N#Cc1ccc(C(=O)N[C@H]2CCCN(c3ccnc(-c4cnc5cnc(C(F)(F)F)cn45)n3)C2)cc1 [IV-743] | > 1 | > 5 |  | 
23 | CC1(C)CN(c2cc(-c3cnc4ccc(C(F)F)nn34)ncn2)C[C@@H](CNS(C)(=O)=O)O1 [II-403, (S)—N-((4-(6-(6-(Difluoromethyl)imidazo[1,2-b]pyridazin-3-yl)pyrimidin-4-yl)-6,6-dimethylmorpholin-2-yl)methyl)methanesulfonamide] |  |  | < 0.01 | < 0.5
24 | CN(C1CCCN(c2cc(-c3cnc4ccc(C(F)F)nn34)ncn2)C1)S(C)(=O)=O (stereo not shown) [II-455, N-(1-(6-(6-(Difluoromethyl)imidazo[1,2-b]pyridazin-3-yl)pyrimidin-4-yl)piperidin-3-yl)-N-methylmethanesulfonamide] |  |  | 0.01 to 1 | 0.5 to 5
25 | CS(=O)(=O)N1CCCN(c2cc(-c3cnc4ccc(C(F)F)nn34)ncn2)CC1 [II-22, 6-(Difluoromethyl)-3-(6-(4-(methylsulfonyl)-1,4-diazepan-1-yl)pyrimidin-4-yl)imidazo[1,2-b]pyridazine] |  |  | 0.01 to 1 | > 5
26 | OC1CCN(c2ccnc(-c3cnc4cnc(C(F)(F)F)cn34)n2)CC1c1cn[nH]c1 (single isomer, unassigned) [IV-623, 3-(1H-Pyrazol-4-yl)-1-(2-(6-(trifluoromethyl)imidazo[1,2-a]pyrazin-3-yl)pyrimidin-4-yl)piperidin-4-ol] | < 0.01 | < 0.5 |  | 
